In PMC9481570, “A small molecule antagonist of SMN disrupts the interaction between SMN and RNAP II” (Nature Communications, 2022):
Where “and” joins values, the source holds several entries; their conditions need not be identical. Identical values can stand only once.

What was measured:
Experiment in all cases: Affinity-purification and mass spectrometry (AP-MS) chemical proteomics, all proteins;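 on Difference: 200 µM free competitor with 20 µM biotin probe overnight in lysate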
Format in all cases: binding
[1] = target: T1, proteins displaced from immobilized biotin-Cmpd 1 pulldowns (U2OS cell lysate) (Homo sapiens, UniProt Q14566); conditions: GN=MCM6 (Q14566)
T1 construct: endogenous in cells; host or cells: U2OS

[2] = target: T2, proteins displaced from immobilized biotin-Cmpd 1 pulldowns (U2OS cell lysate) (Homo sapiens, UniProt Q9BYD6); conditions: GN=MRPL1 (Q9BYD6)
T2 construct: endogenous in cells; host or cells: U2OS

[3] = target: T3, proteins displaced from immobilized biotin-Cmpd 1 pulldowns (U2OS cell lysate) (Homo sapiens, UniProt Q6UB35); conditions: GN=MTHFD1L (Q6UB35)
T3 construct: endogenous in cells; host or cells: U2OS
T3 sequence (Q6UB35 32-978): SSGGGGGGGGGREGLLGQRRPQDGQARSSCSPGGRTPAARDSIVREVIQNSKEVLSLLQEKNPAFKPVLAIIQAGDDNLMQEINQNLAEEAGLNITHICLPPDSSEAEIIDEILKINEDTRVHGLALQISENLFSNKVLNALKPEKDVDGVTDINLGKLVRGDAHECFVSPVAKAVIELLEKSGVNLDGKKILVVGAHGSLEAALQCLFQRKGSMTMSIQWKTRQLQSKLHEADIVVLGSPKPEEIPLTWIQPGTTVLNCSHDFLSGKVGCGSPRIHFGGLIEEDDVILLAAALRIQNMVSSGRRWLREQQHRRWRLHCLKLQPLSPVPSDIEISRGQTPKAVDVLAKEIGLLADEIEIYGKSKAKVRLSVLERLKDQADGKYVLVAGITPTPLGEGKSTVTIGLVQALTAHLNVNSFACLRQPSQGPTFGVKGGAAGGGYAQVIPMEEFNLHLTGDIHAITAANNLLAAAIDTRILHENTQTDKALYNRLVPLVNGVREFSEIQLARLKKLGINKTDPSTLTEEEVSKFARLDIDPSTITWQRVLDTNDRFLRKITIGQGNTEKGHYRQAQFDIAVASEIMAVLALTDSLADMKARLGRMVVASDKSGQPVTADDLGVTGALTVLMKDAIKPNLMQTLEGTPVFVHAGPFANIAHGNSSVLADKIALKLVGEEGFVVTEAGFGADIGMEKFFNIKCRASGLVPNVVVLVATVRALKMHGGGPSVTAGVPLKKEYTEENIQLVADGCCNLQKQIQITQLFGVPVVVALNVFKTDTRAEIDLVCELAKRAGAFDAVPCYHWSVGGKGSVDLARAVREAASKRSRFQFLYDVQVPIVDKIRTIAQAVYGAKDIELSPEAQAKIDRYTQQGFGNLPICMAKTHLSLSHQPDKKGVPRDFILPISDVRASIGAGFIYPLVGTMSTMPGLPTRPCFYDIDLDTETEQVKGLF

[4] = target: T4, proteins displaced from immobilized biotin-Cmpd 1 pulldowns (U2OS cell lysate) (Homo sapiens, UniProt Q9Y5B9); conditions: GN=SUPT16H (Q9Y5B9)
T4 construct: endogenous in cells; host or cells: U2OS
T4 sequence (Q9Y5B9 whole entry): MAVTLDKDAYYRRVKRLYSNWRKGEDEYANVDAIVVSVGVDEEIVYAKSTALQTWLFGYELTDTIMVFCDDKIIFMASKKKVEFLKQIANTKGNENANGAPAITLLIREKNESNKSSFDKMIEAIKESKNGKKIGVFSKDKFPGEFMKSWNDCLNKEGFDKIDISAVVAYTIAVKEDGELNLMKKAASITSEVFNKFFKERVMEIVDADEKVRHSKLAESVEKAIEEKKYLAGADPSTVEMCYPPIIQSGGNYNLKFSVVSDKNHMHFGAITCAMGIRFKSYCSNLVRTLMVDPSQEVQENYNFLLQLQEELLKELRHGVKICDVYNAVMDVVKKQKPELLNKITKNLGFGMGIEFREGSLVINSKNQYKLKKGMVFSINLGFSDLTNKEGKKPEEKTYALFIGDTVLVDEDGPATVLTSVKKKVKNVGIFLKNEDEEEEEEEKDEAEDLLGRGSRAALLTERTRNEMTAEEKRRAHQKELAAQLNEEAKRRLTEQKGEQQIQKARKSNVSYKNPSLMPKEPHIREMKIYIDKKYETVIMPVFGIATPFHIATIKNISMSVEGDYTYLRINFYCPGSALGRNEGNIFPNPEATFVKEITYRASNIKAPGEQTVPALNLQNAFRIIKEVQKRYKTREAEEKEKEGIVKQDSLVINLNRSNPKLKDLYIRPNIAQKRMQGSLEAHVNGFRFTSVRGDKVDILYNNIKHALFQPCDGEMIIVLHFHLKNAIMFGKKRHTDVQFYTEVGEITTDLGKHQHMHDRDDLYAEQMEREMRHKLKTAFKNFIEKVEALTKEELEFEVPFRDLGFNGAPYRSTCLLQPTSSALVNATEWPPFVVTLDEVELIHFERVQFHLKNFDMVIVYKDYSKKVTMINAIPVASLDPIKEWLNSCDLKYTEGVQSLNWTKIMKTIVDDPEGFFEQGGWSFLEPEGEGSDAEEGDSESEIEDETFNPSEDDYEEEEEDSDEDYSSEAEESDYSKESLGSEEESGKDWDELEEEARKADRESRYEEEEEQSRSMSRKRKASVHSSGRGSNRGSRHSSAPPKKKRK

[5] = target: T5, proteins displaced from immobilized biotin-Cmpd 1 pulldowns (U2OS cell lysate) (Homo sapiens, UniProt Q96DA0); conditions: GN=ZG16B (Q96DA0)
T5 construct: endogenous in cells; host or cells: U2OS
T5 sequence (Q96DA0 17-172): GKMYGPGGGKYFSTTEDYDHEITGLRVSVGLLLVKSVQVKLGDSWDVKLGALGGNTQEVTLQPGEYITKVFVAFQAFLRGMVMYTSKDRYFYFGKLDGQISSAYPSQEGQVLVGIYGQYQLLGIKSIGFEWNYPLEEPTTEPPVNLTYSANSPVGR

[6] = target: T6, proteins displaced from immobilized biotin-Cmpd 1 pulldowns (U2OS cell lysate) (Homo sapiens, UniProt Q13867); conditions: GN=BLMH (Q13867)
T6 construct: endogenous in cells; host or cells: U2OS
T6 sequence (Q13867 whole entry): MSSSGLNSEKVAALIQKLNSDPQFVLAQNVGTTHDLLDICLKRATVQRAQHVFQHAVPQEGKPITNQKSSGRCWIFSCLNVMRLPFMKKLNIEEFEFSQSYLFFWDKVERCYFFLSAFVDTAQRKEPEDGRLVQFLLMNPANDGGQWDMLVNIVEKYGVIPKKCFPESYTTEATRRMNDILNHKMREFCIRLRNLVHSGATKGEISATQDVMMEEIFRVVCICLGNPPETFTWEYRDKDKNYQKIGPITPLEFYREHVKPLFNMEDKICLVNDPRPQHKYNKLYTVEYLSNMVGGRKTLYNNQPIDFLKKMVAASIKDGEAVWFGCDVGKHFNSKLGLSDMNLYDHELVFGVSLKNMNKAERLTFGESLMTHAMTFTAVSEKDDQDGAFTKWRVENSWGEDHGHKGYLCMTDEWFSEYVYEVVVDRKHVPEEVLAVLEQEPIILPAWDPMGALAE

[7] = target: T7, proteins displaced from immobilized biotin-Cmpd 1 pulldowns (U2OS cell lysate) (Homo sapiens, UniProt P25311); conditions: GN=AZGP1 (P25311)
T7 construct: endogenous in cells; host or cells: U2OS
T7 sequence (P25311 21-298): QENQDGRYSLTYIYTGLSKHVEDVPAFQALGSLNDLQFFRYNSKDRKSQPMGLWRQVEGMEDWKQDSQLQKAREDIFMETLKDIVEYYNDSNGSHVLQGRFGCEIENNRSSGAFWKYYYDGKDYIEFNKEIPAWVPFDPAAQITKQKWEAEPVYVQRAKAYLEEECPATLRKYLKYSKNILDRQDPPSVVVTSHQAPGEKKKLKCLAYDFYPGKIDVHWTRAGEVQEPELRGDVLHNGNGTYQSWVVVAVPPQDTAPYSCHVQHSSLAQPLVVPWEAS

[8] = target: T8, proteins displaced from immobilized biotin-Cmpd 1 pulldowns (U2OS cell lysate) (Homo sapiens, UniProt P62424); conditions: GN=RPL7A (P62424)
T8 construct: endogenous in cells; host or cells: U2OS

[9] = target: T9, proteins displaced from immobilized biotin-Cmpd 1 pulldowns (U2OS cell lysate) (Homo sapiens, UniProt Q13573); conditions: GN=SNW1 (Q13573)
T9 construct: endogenous in cells; host or cells: U2OS
T9 sequence (Q13573 whole entry): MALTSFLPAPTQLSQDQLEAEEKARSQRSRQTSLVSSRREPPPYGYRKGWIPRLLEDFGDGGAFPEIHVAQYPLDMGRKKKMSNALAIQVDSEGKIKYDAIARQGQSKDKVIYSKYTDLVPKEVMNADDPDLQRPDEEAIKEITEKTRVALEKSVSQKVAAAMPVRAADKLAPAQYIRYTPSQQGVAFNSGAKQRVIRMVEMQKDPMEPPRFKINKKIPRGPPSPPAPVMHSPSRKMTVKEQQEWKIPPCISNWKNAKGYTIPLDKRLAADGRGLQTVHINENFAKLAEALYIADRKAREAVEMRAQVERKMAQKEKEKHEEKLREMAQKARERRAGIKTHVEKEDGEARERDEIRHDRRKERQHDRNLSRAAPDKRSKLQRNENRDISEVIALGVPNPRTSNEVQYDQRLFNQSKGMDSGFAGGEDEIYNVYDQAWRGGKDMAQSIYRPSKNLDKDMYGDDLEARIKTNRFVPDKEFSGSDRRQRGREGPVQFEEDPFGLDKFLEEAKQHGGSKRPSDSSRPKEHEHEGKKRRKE

[10] = target: T10, proteins displaced from immobilized biotin-Cmpd 1 pulldowns (U2OS cell lysate) (Homo sapiens, UniProt Q02880); conditions: GN=TOP2B (Q02880)
T10 construct: endogenous in cells; host or cells: U2OS
T10 sequence (Q02880 whole entry): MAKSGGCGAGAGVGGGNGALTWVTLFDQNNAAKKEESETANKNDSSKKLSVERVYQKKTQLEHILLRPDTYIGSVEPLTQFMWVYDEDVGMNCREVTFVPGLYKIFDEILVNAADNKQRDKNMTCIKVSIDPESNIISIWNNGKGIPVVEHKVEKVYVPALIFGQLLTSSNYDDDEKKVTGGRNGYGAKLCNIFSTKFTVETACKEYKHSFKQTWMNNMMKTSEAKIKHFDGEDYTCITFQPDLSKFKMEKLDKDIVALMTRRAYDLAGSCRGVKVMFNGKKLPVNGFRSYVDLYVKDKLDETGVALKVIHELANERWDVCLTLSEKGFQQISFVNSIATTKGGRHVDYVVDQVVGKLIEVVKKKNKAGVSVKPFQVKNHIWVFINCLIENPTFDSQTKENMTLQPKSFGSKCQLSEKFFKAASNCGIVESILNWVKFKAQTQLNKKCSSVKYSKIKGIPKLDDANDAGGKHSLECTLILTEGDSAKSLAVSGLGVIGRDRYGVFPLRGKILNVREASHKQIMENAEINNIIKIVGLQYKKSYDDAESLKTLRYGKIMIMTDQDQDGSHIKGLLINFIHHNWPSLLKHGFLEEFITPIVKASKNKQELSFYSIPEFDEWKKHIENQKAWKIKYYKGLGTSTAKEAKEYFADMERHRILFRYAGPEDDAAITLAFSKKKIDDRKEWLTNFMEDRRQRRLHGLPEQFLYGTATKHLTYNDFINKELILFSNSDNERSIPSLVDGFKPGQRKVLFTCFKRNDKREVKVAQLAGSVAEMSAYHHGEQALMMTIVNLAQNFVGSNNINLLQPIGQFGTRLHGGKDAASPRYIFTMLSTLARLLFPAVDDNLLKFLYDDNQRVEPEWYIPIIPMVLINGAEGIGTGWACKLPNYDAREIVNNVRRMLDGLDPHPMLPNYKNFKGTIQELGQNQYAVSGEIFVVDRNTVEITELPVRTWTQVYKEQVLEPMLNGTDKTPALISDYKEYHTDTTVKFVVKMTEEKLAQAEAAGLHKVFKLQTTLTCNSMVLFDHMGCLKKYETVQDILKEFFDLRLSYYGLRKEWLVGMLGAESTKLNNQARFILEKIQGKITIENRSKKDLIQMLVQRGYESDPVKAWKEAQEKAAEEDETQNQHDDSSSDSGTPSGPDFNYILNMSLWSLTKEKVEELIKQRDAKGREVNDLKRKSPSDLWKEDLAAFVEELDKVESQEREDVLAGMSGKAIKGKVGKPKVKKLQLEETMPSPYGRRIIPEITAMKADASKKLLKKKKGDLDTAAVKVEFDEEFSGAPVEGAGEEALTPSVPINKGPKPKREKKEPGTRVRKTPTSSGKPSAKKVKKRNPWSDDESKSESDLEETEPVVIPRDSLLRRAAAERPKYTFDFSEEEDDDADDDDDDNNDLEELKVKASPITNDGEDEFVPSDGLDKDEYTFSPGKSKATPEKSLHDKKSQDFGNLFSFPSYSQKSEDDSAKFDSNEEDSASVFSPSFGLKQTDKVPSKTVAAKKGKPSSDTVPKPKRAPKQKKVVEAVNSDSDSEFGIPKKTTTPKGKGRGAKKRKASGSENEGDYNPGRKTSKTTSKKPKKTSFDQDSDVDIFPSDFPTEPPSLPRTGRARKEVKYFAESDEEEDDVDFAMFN

## Cn1c2c(c(=N)c3c1CCC3)CCC2 [Compound 1, 4-methyl-2,3,4,5,6,7-hexahydrodicyclopenta[b,e]pyridin-8(1H)-imine]
[1]; Cmpd minus DMSO, -LOG(P-value) 0.814851
  Difference: 1.097
[1]; replicates 1-3
  iBAQ Cmpd: 19.4847 and 18.183 and 18.682
[2]; Cmpd minus DMSO, -LOG(P-value) 1.01314
  Difference: 3.091
[2]; replicates 1-3
  iBAQ Cmpd: 18.4151 and 17.6221 and 18.5153
[3]; Cmpd minus DMSO, -LOG(P-value) 1.33022
  Difference: 0.8728
[3]; replicates 1-3
  iBAQ Cmpd: 15.8133 and 15.8201 and 15.0604
[4]; Cmpd minus DMSO, -LOG(P-value) 1.35125
  Difference: 1.168
[4]; replicates 1-3
  iBAQ Cmpd: 20.1986 and 19.3251 and 19.6735
[5]; Cmpd minus DMSO, -LOG(P-value) 1.41535
  Difference: -4.273
[5]; replicates 1-3
  iBAQ Cmpd: 15.4223 and 14.7351 and 17.7658
[6]; Cmpd minus DMSO, -LOG(P-value) 0.904295
  Difference: -3.65
[6]; replicates 1-3
  iBAQ Cmpd: 19.0378 and 19.0387 and 13.7316
[7]; Cmpd minus DMSO, -LOG(P-value) 0.92202
  Difference: -1.239
[7]; replicates 1-3
  iBAQ Cmpd: 21.041 and 21.3151 and 19.6243
[8]; Cmpd minus DMSO, -LOG(P-value) 0.865251
  Difference: 0.2314
[8]; replicates 1-3
  iBAQ Cmpd: 25.9383 and 25.6872 and 25.6067
[9]; Cmpd minus DMSO, -LOG(P-value) 1.77748
  Difference: 2.177
[9]; replicates 1-3
  iBAQ Cmpd: 17.1233 and 17.0397 and 16.2301
[10]; Cmpd minus DMSO, -LOG(P-value) 0.742976
  Difference: 1.036
[10]; replicates 1-3
  iBAQ Cmpd: 16.8685 and 16.1972 and 16.6057
